What was measured:
3T3-L1 adipocytes = test: [3H] 2-deoxyglucose transport in 3T3-L1 adipocytes; assay type: cell-based, mouse; conditions: for glucose uptake after depletion of IR: siRNA against IR
Protocol: NIH 3T3-L1 preadipocytes and MEFs were grown in standard media. MEF were continuously passed in standard media to generate spontaneously immortalizedfibroblasts. […] 3T3-L1 adipocytes were reseeded into 12-well plates 10 to 12 days after differentiation. […] The transport reaction was initiated by adding 2-deoxyglucose (final 100 uM) with [3H] 2-deoxyglucose (0.2 μCi/well). After a 10 min incubation period, cells were washed three times with ice-cold PBS, solubilized in 1% SDS, 1M NaOH. After neutralization, radioactivity was measured by scintillation counting

wild-type MEF cells = test: [3H] 2-deoxyglucose transport in wild-type MEF cells; assay type: cell-based, mouse; conditions: insulin 100 nM 15 min or compound 5 μM 30 min
Protocol: Insulin signaling in the cell lysates were tested by immunoblotting. (B) DDN stimulates glucose uptake. […] [3H]2-deoxyglucose was then added, and the cells were further incubated for 10 min. [3H]2-deoxyglucose uptake by adipocytes was measured by scintillation counting (*: P<0.05 **: P<0.01 vs control, Student's t-test, n=3). (C) DDN synergizes insulin's signaling. […] Cell lysates were then prepared for Western blot using specific antibodies as indicated. […] 3H-2-deoxyglucose was then added, and the cells were further incubated for 10 min. 3H-2-deoxyglucose uptake by adipocytes was measured by scintillation counting (*: P<0.05; **: P<0.01, Student's t-test, n=3). (E) IR is necessary for DDN to induce ERK phosphorylation. Differentiated 3T3-L1 adipocytes were transfected with control siRNA or siRNA against IR. […] Cell lysates were analyzed by Western blot. (F) The glucose uptake induced by DDN in p85α knockout MEF cells. […] The uptake of 3H-2-deoxyglucose was monitored by liquid scintillation counting (*: P<0.05; **: P<0.01 vs control, Student's t-test, n=3).
(A) 4524-E7 activates IR phosphorylation and its downstream signaling in 3T3-L1 adipocytes. […] The cells were lysed, and immunoprecipitated with PY20, and followed by Western blot using specific antibodies. (B) 4524-E7 stimulates glucose uptake in 3T3-L1 adipocytes. […] [3H]2-deoxyglucose was added, and the cells were further incubated for 10 min. The amount of [3H]2-deoxyglucose taken by adipocytes was measured. (C) 4524-E7 inhibits fatty acid oxidation. […] Results were normalized to DMSO-treated cells and expressed as mean±S.E.M. (*: P<0.05; **:P<0.01, Student's t-test, n=3). (D) IR knockdown in adipocytes decreases IR signaling by 4524-E7. […] Cells lysates were collected and analyzed by Western blot. […] 2-deoxyglucose was monitored by liquid scintillation counter. Results were expressed as mean±S.E.M. (*: P<0.05; **:P<0.01, Student's t-test, n=3).
NIH 3T3-L1 preadipocytes and MEFs were grown in standard media. […] After neutralization, radioactivity was measured by scintillation counting

C57BL/6J mice = test: Blood glucose level test in C57BL/6J mice; assay type: in vivo, mouse; conditions: for time until decrease of blood glucose: DDN 20 mg/kg oral, insulin 1 U/kg i.p.
Protocol: (A) DDN reduces blood glucose in C57BL/6J mice. […] Blood glucose was monitored before and after dosing at various time points as indicated (*: P<0.05, **: P<0.01; ***: P<0.001, n=10-13, Two-way ANOVA vs vehicle). (B) DDN provokes IR phosphorylation and its downstream signaling in C57BL/6J mice. Three month-old C57BL/6J mice were starved for 12 h and then orally administrated with vehicle (0.5% methylcellulose), DDN (20 mg/kg) or 2NH2-NQ (20 mg/kg). Cell lysates were prepared from liver and muscle tissues collected at 3, 4, and 5 h after drug administration and analyzed by immunoprecipitation and immunoblotting. (C) DDN quickly activates IR phosphorylation and its downstream signaling. Three-month-old C57BL/6J mice were starved for 12 h and then injected with vehicle, 5 mg/kg DDN or 5 mg/kg 2NH2-NQ through vena cava. After 5 min, the liver was collected and analyzed by immunobloting using specific antibodies.
(§1) (A) 4524-E7 provokes IR phosphorylation in various tissues of mice. Three-month-old C57BL/6J mice were starved for 12 h and then dosed with vehicle (0.5% methylcellulose) or 4524-E7 (20 mg/kg). Cell lysates from liver, muscle, and WAT were prepared at 3, 4, and 5 h after drug administration and analyzed by immunoblotting. (B) Basal and insulin-stimulated hepatic glucose production rates were measured by hyperinsulinemic-euglycemic clamp. […] (C) Hypoglycemic effect of 4524-E7 in C57BL/6J mice. C57BL/6J mice were starved for 12 h and then orally administrated with vehicle (0.5% methylcellulose) or 4524-E7 (5 mg/kg). Blood glucose was monitored at different time points as indicated (n=8, *: P<0.05, two-way ANOVA). (D) Hypoglycemic effect in db/db mice. db/db mice were starved for 12 h and then orally injected with vehicle (0.5% methylcellulose) or 4524-E7 (5 mg/kg). Blood glucose was monitored at different time points as indicated (n=5, *: P<0.05, two-way ANOVA). (E) Glucose tolerance test in ob/ob mice. The mice were starved for 12 hours and then orally administrated with vehicle or 4524-E7 (5 mg/kg). A bonus of glucose (2 gm/kg) was injected intraperitoneally 1 hour later. Blood glucose was then measured at 30 min intervals (n=13, *: P<0.05; **: P<0.01, two-way ANOVA).
After a 12 h fasting, C57B5L/6J and db/db mice were bled from the tail vein for a baseline measurement with a glucometer (Accu-Chek; Roche Diagnostics, Indianapolis, Ind.). Afterward, animals were orally administered 5 mg/kg compound in 0.5% methylcellulose through a feeding needle. Blood glucose levels were measured at hourly intervals over 5 h.

db/db mice = test: Blood glucose level test in db/db mice; assay type: in vivo, mouse; conditions: for duration of blood glucose lowering effect: DDN 5 mg/kg oral, insulin 1 U/kg i.p.
Protocol: Three-month-old mice were starved for 12 h and then orally administrated with vehicle (0.5% methylcellulose) or DDN (5 mg/kg). Cell lysates were prepared from liver and muscle tissues collected at 1 and 2 h after drug administration and analyzed by immunoprecipitation and immunoblotting. […] Three-month-old mice were starved for 12 h and then orally administrated with vehicle (0.5% methylcellulose) or DDN (5 mg/kg). Cell lysates were prepared from liver and muscle tissues collected at 1 and 2 h after drug administration and analyzed by immunoprecipitation and immunoblotting. (C) Hypoglycemic function of DDN in db/db mice. The animals were starved for 12 h and then orally injected with vehicle (0.5% methylcellulose) or DDN (5 mg/kg). […] Blood glucose was monitored before and after drug administration at 1-hour intervals (*: P<0.05, **: P<0.01, n=5, Two-way ANOVA vs vehicle). (D) DDN improves the glucose tolerance in ob/ob mice. The animals were starved for 12 h and then orally dosed with vehicle (0.5% methylcellulose) or DDN (5 mg/kg). […] A bonus of glucose (2 gm/kg) was injected intraperitoneally 1 hour later. Blood glucose was measured at 30-min intervals (*: P<0.05, **:P<0.01, n=5, Two-way ANOVA vs vehicle control).
as §1
After a 12 h fasting, C57B5L/6J and db/db mice were bled from the tail vein for a baseline measurement with a glucometer (Accu-Chek; Roche Diagnostics, Indianapolis, Ind.). […] Blood glucose levels were measured at hourly intervals over 5 h.

Molecule	glucose uptake as compared to control (3T3-L1 adipocytes; 5 μM, 30 min)	lowest concentration significantly elevating glucose uptake (3T3-L1 adipocytes; 30 min)	glucose uptake in combination with insulin (3T3-L1 adipocytes; 4524-E7 plus 10 nM insulin, versus the two agents alone)	glucose uptake after depletion of IR (3T3-L1 adipocytes)	[3H]-2-deoxyglucose uptake (wild-type MEF cells)	blood glucose (C57BL/6J mice; 5 mg/kg single oral administration, 3˜4 h after)	blood glucose (db/db mice; 5 mg/kg oral, one hour after administration)	3H-deoxyglucose uptake (3T3-L1 adipocytes; 5 nM, alone)	time until decrease of blood glucose (C57BL/6J mice)	duration of blood glucose lowering effect (db/db mice)	glucose uptake in combination with insulin (3T3-L1 adipocytes; 5 nM DDN plus 5 nM insulin)	3H-deoxyglucose uptake (3T3-L1 adipocytes; DDN 0.1, 0.25, 0.5 μM, 30 min)	blood glucose as compared to vehicle control (C57BL/6J mice; 20 mg/kg oral, 12 h starved)	blood glucose as compared to vehicle control (db/db mice; 5 mg/kg oral, one h after administration)
O=C1c2ccccc2C(=O)C2SC(Nc3ccc(Cl)cc3)=NC12 (stereo not shown) [4524-E7, 2-((4-chlorophenyl)amino)naphtho[2,3-d]thiazole-4,9(3aH,9aH)-dione]	nearly quadrupled	1 µM	additively escalated	substantially diminished	triggered robust [3H]-2-deoxyglucose uptake	70 % of basal level	about 50 % of the initial value	–	–	–	–	–	–	–
insulin: insulin, used as positive control	–	–	–	substantially diminished	triggered robust [3H]-2-deoxyglucose uptake	–	–	significantly increased	Thirty min	2 h	–	–	–	–
CC(=O)Oc1ccc(OC(C)=O)c2c1C(=O)C(Cl)=C(Cl)C2=O [DDN, 5,8-diacetyloxy-2,3-dichloro-1,4-naphthoquinone]	–	–	–	–	triggered robust 3H-deoxyglucose uptake	–	–	–	3 h	sustain till the end of the experiment	further increased	escalated 3H-deoxyglucose uptake in a dose-dependent manner	significantly reduced blood glucose	lower blood glucose was found in db/db mice
